# Assay results from paper PMC8078842 (PLoS Neglected Tropical Diseases, 2021).
# “And” between values parts separate entries of the source, which are not always exact repeats. Equal entries are not always repeated.
# Assay: In situ brain/choroid plexus perfusion (10 or 30 minutes) with capillary depletion
# Conditions: for RTISSUE/PLASMA% (mean±SEM) Caudate putamen / RTISSUE/PLASMA% (mean±SEM) Cerebellum / RTISSUE/PLASMA% (mean±SEM) Choroid plexus / RTISSUE/PLASMA% (mean±SEM) Corpus callosum / RTISSUE/PLASMA% (mean±SEM) Frontal cortex / RTISSUE/PLASMA% (mean±SEM) Hippocampus / RTISSUE/PLASMA% (mean±SEM) Homogenate / RTISSUE/PLASMA% (mean±SEM) Hypothalamus / RTISSUE/PLASMA% (mean±SEM) Occipital cortex / RTISSUE/PLASMA% (mean±SEM) Pellet / RTISSUE/PLASMA% (mean±SEM) Pineal gland / RTISSUE/PLASMA% (mean±SEM) Pituitary gland / RTISSUE/PLASMA% (mean±SEM) Pons / RTISSUE/PLASMA% (mean±SEM) Supernatant / RTISSUE/PLASMA% (mean±SEM) Thalamus / RTISSUE/PLASMA% (mean ± SEM) of [^3H]pentamidine: not corrected for vascular space; for RTISSUE/PLASMA% (mean ± SEM) of [^3H]pentamidine: 30 min perfusion
# [1] = 15.7 nM, 10 minutes perfusion, corrected for vascular space
# [2] = 15.7 nM, 10 minutes perfusion, corrected for vascular space, listed as [^3H]pentamidine
# [3] = 10 minutes perfusion, listed as Control A [^3H]pentamidine
# [4] = 10 minutes perfusion, listed as Control B [^3H]pentamidine
substance,measurement,setting,value
[^3H(G)]pentamidine,RCORR TISSUE% caudate putamen,[1],4.02 (± 1.03) %
same,RCORR TISSUE% cerebellum,[1],3.82 (± 0.64) %
same,RCORR TISSUE% choroid plexus,[1],490.9 (± 103.1) %
same,RCORR TISSUE% corpus callosum,[1],6.73 (± 2.65) %
same,RCORR TISSUE% frontal cortex,[1],4.29 (± 0.93) %
same,RCORR TISSUE% hippocampus,[1],4.37 (± 0.97) %
same,RCORR TISSUE% homogenate,[1],4.61 (± 0.94) %
same,RCORR TISSUE% hypothalamus,[1],5.56 (± 1.58) %
same,RCORR TISSUE% occipital cortex,[1],4.03 (± 0.98) %
same,RCORR TISSUE% pellet,[1],12.54 (± 1.74) %
same,RCORR TISSUE% pineal gland,[1],284.7 (± 81.4) %
same,RCORR TISSUE% pons,[1],7.16 (± 1.75) %
same,RCORR TISSUE% supernatant,[1],less than 2%
same,RCORR TISSUE% thalamus,[1],4.76 (± 0.91) %
same,RCORR TISSUE% pituitary gland,[2],182.75(± 29.6) % and 182.75(± 37.5) %
same,RCORR TISSUE% supernatant,[2],1.99 (± 0.45) %
same,RTISSUE/PLASMA% (mean±SEM) Caudate putamen,[3],4.08 (± 0.84) %
same,RTISSUE/PLASMA% (mean±SEM) Cerebellum,[3],5.28 (± 0.56) %
same,RTISSUE/PLASMA% (mean±SEM) Choroid plexus,[3],385.74 (± 24.35) %
same,RTISSUE/PLASMA% (mean±SEM) Corpus callosum,[3],5.32 (± 1.47) %
same,RTISSUE/PLASMA% (mean±SEM) Frontal cortex,[3],4.88 (± 1.18) %
same,RTISSUE/PLASMA% (mean±SEM) Hippocampus,[3],3.48 (± 0.94) %
same,RTISSUE/PLASMA% (mean±SEM) Homogenate,[3],4.03 (± 0.78) %
same,RTISSUE/PLASMA% (mean±SEM) Hypothalamus,[3],5.96 (± 1.23) %
same,RTISSUE/PLASMA% (mean±SEM) Occipital cortex,[3],4.56 (±0.87) %
same,RTISSUE/PLASMA% (mean±SEM) Pellet,[3],4.11 (± 1.24) %
same,RTISSUE/PLASMA% (mean±SEM) Pineal gland,[3],367.59 (± 39.97) %
same,RTISSUE/PLASMA% (mean±SEM) Pituitary gland,[3],251.21 (± 66.80) %
same,RTISSUE/PLASMA% (mean±SEM) Pons,[3],7.81 (± 0.90) %
same,RTISSUE/PLASMA% (mean±SEM) Supernatant,[3],2.54 (± 0.39) %
same,RTISSUE/PLASMA% (mean±SEM) Thalamus,[3],4.34 (± 0.83) %
same,RTISSUE/PLASMA% (mean±SEM) Caudate putamen,[4],5.40 (± 1.00) %
same,RTISSUE/PLASMA% (mean±SEM) Cerebellum,[4],6.54 (± 0.70) %
same,RTISSUE/PLASMA% (mean±SEM) Choroid plexus,[4],535.95 (± 107.86) %
same,RTISSUE/PLASMA% (mean±SEM) Corpus callosum,[4],9.17 (± 2.67) %
same,RTISSUE/PLASMA% (mean±SEM) Frontal cortex,[4],6.23 (± 0.92) %
same,RTISSUE/PLASMA% (mean±SEM) Hippocampus,[4],5.60 (± 1.43) %
same,RTISSUE/PLASMA% (mean±SEM) Homogenate,[4],6.20 (± 0.97) %
same,RTISSUE/PLASMA% (mean±SEM) Hypothalamus,[4],8.14 (± 1.75) %
same,RTISSUE/PLASMA% (mean±SEM) Occipital cortex,[4],5.67 (± 0.99) %
same,RTISSUE/PLASMA% (mean±SEM) Pellet,[4],13.19 (± 1.79) %
same,RTISSUE/PLASMA% (mean±SEM) Pineal gland,[4],361.76 (± 79.03) %
same,RTISSUE/PLASMA% (mean±SEM) Pituitary gland,[4],203.27(± 32.85) %
same,RTISSUE/PLASMA% (mean±SEM) Pons,[4],10.72 (± 1.82) %
same,RTISSUE/PLASMA% (mean±SEM) Supernatant,[4],3.00 (± 0.43) %
same,RTISSUE/PLASMA% (mean±SEM) Thalamus,[4],5.95 (± 0.92) %
same,"Accumulation corrected for vascular space, hippocampus",30 minutes of perfusion,6.9%
same,"Accumulation corrected for vascular space, hypothalamus",30 minutes of perfusion,15%
same,"Accumulation corrected for vascular space, pons",30 minutes of perfusion,10.9%
same,RTISSUE/PLASMA% (mean ± SEM) of [^3H]pentamidine,"Caudate putamen, 0.01% F68 + 15.7 nM pent",6.90 (± 1.58) %
same,RTISSUE/PLASMA% (mean ± SEM) of [^3H]pentamidine,"Caudate putamen, 0.1% F68 + 15.7 nM pent",10.41 (± 1.18) %
same,RTISSUE/PLASMA% (mean ± SEM) of [^3H]pentamidine,"Caudate putamen, 0.5% F68 + 15.7 nM pent",13.07 (± 3.45) %
same,RTISSUE/PLASMA% (mean ± SEM) of [^3H]pentamidine,"Caudate putamen, Control (15.7 nM pent)",8.65 (± 0.28) %
same,RTISSUE/PLASMA% (mean ± SEM) of [^3H]pentamidine,"Cerebellum, 0.01% F68 + 15.7 nM pent",9.38 (± 2.47) %
